Literature values as cited in US5854268A, “Azetidine, pyrrolidine and piperidine derivatives” (Merck Sharp & Dohme, Ltd., priority 1994, dated 1998).

Conditions: therapeutic doses

CNS(=O)(=O)Cc1ccc2[nH]cc(CCN(C)C)c2c1 [sumatriptan]
adverse events in humans: certain adverse cardiovascular events
